“Also recorded” adds a separate entry of the source.
How the values were obtained:
caspase-3 = assay: Caspase-3 colorimetric assay (DEVD-pNA substrate); format: cell-based, human
Experimental: To measure caspase activity, cells were incubated in six-well Falcon plates (1×10^6 cells/well) and harvested by trypsinization. The cells were then pelleted and lysed as per the manufacturer's recommendation (MBL, Nagoya, Japan) and the cytosolic protein concentration was quantified using a BCA protein assay reagent (Pierce, Rockford, Ill.). The caspase-3 assay was performed in a 96-well microtiter plate using 100 μg of protein and 5 μl of 4 mM DEVD-pNA Substrate (CPP32/caspase-3 Colorimetric Protease Assay Kit; MBL, Nagoya, Japan). The protein and reagent were then incubated for 2 hours at 37° C. A background reading from cell lysates and buffer without DEVD-pNA substrate was subtracted from samples; the assay was performed in triplicate. Samples were read at 405 nm in a microtiter plate reader.
Caspase Inhibitor I (Z-VAD-fink; z-Val-Ala-Asp(OMe)-CH2F, Calbiochem; La Jolla, Calif.) was used from a 21 mM stock in DMSO stored at −20° C. until use and then diluted into tissue culture medium immediately prior to its application. After a 2-hour incubation with the caspase inhibitor, cells were treated with Taurolidine. […] Untreated cells received an equivalent dilution of DMSO.

LS-180 cells [1] = assay: Light microscopy / Hoechst 33258 staining for apoptotic morphology; format: cell-based, human; details: even at 400 μm; light microscopy or Hoechst 33258
LS-180 cells [2] = assay: WST-8 tetrazolium cell number assay; details: dose-dependent; concentration not given
[3] = tested on: LS-180 hepatic metastases; assay: Liver metastases model: splenic injection of LS-180 cells in nude mice, IP treatment; format: in vivo; details: for Serum CEA: mean ± SE, n = 20, after 3 weeks IP Taurolidine; for reduction in serum CEA levels vs control: 3 weeks IP therapy; for reduction in liver weight vs control: daily IP, 5 days/week, 3 weeks
Experimental: General anesthesia was induced using 400 μl choral hydrate (2%). Using sterile conditions, a vertical paramedian incision was used to expose the spleen. An intrasplenic injection of 1×10^5 tumor cells in 0.4 ml of serum free medium was performed, followed by splenectomy using hemoclips for vascular control. The incision was then closed using surgical staples. Beginning post injections days 2 or 5, mice received IP injections of 0.45% normal saline (n=10 per group) or Taurolidine (n=20 per group). Taurolidine (Boehringer Ingelheim, Germany) was given as a daily 0.5 ml IP injection of 2% solution ([…]) for 5 consecutive days per week for a total of 3 weeks. The day following the last treatment of Taurolidine or 0.45% NS, the mice were sacrificed and examined for gross tumor. Blood was drawn from the right ventricle, immediately centrifuged, and serum collected for CEA assays. The livers were weighed and fixed in HistoFix and representative sections taken for H&E microscopic examination. In addition, 9 mice (n=3 per group) were used to study the tumor model. At days 5, 10 and 15, mice that received a splenic tumor cell injection without any further intervention were sacrificed to assess tumor burden at varying time points. The livers were assessed for gross tumor and submitted in toto for histologic examination.

LS-180 cells [4] = assay: MTT cell proliferation assay; format: cell-based, human
Experimental: (§1) Cell proliferation was assessed using a standard MTT (3,(4,5-dimethylthiazol-2yl)2,5-diphenyltetrazolium bromide; Sigma, St. Louis, Mo.) dye at 570 nm. Cells were into seeded in 96-well microtiter plates (2×10^5 cells/well) using 200 μl of medium. After a 12 hour incubation, Taurolidine was applied for a period of 6, 9, 12, 24 or 48 hours. At each time point 20 μl of MTT (5 mg/ml) was added and the cells were incubated at 37° C. for an additional 30 minutes. The medium was removed and the dye was eluted using acidic isopropyl alcohol (0.04N HCl). Cell viability was measured using crystal violet dye. Cells were seeded and treated with Taurolidine as described for the MTT assay. The medium was then removed and the cells were stained and fixed using a crystal violet staining solution containing 0.75% Crystal violet, 50% EtOH, 0.25% NaCl, and 1.75% formaldehyde for 10 minutes at room temperature. After staining and fixation the cells were rinsed with water and air-dried. The crystal violet dye was eluted using a 1% SDS in PBS solution and the absorbance was measured at 540 nm in a microtiter plate reader.
(§2) The human LS-180 colon cancer cell line was incubated with 25, 50, 75, and 100 μm concentrations of Taurolidine, and an MTT assay was performed at 6, 9, 12, 24 and 48 hours after Taurolidine administration. An accompanying crystal violet assay was performed under the same conditions. […] Flow cytometry was also performed using bromodeoxyuridine (BrdU) to help quantify the proportion of cells in S phase and evaluate cell proliferation.

LS-180 cells [5] = assay: Crystal violet cell viability / adherent cell assay; format: cell-based, human
Experimental: as §1, §2

LS-180 cells [6] = assay: Flow cytometry (propidium iodide / BrdU) cell cycle and DNA content analysis; format: cell-based, human
Experimental: FIGS. 4A–D are histograms showing that Taurolidine induces apoptosis in human colon cancer cells. In FIGS. 4A–C, LS-180 cells were treated with 100, 200, and 400 μM concentrations of Taurolidine. After 24 hours the cells were harvested by trypsinization, labeled with propidium iodide, and their DNA content was measured by flow cytometry. The percentage of subdiploid DNA content, representing DNA degradation in apoptotic cells, is shown. […] LS-180 cells were treated with 100, 200, and 400 -μM concentrations of Taurolidine and harvested by trypsinization at 12, 24, and 36 hours. Caspase-3 activity was assessed by its ability to cleave the DEVD-pNA colorimetric substrate.
LS-180 cells were cultured in 100 mm Falcon plates (5×10^6 cells/plate) for 12 hours to become adherent. Cells were incubated for 12, 14 and 48 hours with complete medium (control) or 50, 100 and […] concentrations of Taurolidine. The cells were then treated with 10 μm bromodeoxyuridine (BrdU) for 30 minutes, and both floating and adherent cells were harvested for fixation in 70% ethanol. The DNA was denatured using 2N HCl and labeled with FITC-conjugated anti-BrdU antibody (anti-bromodeoxyuridine-fluorescein monoclonal antibody; Roche, Indianapolis, Ind.). Before analysis by flow cytometry the cells were treated with ribonuclease (Dnase-free ribonuclease, Roche, Indianapolis, Ind.) and propidium iodide (Sigma, St. Louis, Mo.). FACs analysis was performed on a FACscan flow cytometer (Becton Dickinson, N.J.).

[7] = Lactate dehydrogenase (LDH) release cytotoxicity assay; format: cell-based, human; details: human, LS-180 cells
Experimental: (§3) Cytotoxicity was quantified using a standard lactate dehydrogenase cytotoxicity assay (Cytotoxicity Detection Kit, Roche). LS-180 cells (2.5×10^5 cell/well) were cultured in Falcon 96-well microtiter plates in a humidified incubator at 37° C., 5% CO2. […] Triton X-100 (1% final concentration) was used to lyse cells and determine the maximum release of LDH enzyme (high control). Cytotoxicity was determined as per the manufacturer's protocol, and the absorbance was measured at 490 nm in a microtiter plate reader.
(§4) Cytotoxicity was assessed by measuring lactate dehyhdrogenase (LDH) activity released from the cytosol of damaged cells. […] Taurolidine, even at a 400 μm concentration, produced minimal cytotoxic effects on LS-180 cells. […] This is in contradistinction to previously reported in vitro studies of Taurolidine on malignant cell lines.

LS-180 cells [8] = assay: as above; format: cell-based, human; details: 100, 200 and 400 μM, 24 hours
Experimental: as §3, §4

[9] = treatment begun 2 days after splenic tumor injection
[10] = treatment begun 5 days after splenic tumor injection
[11] = dose-dependent, concentration not given

## O=S1(=O)CCN(CN2CCS(=O)(=O)NC2)CN1 [Taurolidine, bis(1,1-dioxoperhydro-1,2,4-thiadiazinyl-4)methane]
caspase-3; 100, 200 and 400 μM, 12, 24 and 36 hours
  caspase-3 activity: dose-dependent increase; also recorded: dose dependent increase
LS-180 cells [1]
  apoptotic morphology: failed to demonstrate cell shrinkage, cytoplasmic condensation, nuclear fragmentation or blebbing
LS-180 cells [2]
  decrease in tumor cell viability (WST-8 assay): 85%
[3]; 10-mg per day IP, five consecutive days x 3 weeks
  tolerability / deaths during therapy: well tolerated, resulting in no deaths of animals; also recorded: all mice tolerated the full 3-week course of treatment
[3]; Day 2 group
  Serum CEA: 7.73 ± 0.52 ng/mL
[3]; Day 5 group
  Serum CEA: 11.88 ± 1.97 ng/mL
[3]; daily IP Taurolidine for 3 weeks, begun day 2 or 5
  gross hepatic tumor burden vs control: dramatic reduction in hepatic tumor involvement; also recorded: dramatic reduction of tumor burden; also recorded: striking decrease in tumor burden; also recorded: marked reduction in tumor burden; also recorded: marked decrease in tumor burden
[3]; [9]
  reduction in serum CEA levels vs control: 69%
  reduction in liver weight vs control: 18%
[3]; [10]
  reduction in serum CEA levels vs control: 78%
  reduction in liver weight vs control: 22%
LS-180 cells [4]; 100 μm Taurolidine, present as early as 9 hours after exposure
  decrease by MTT assay: 40–50%
LS-180 cells [4]; 100 μm, after 24 hours
  reduction in cell number (MTT assay): 40–50%
LS-180 cells [4]; [11]
  decrease in adherent tumor cells (MTT assay): 60%
LS-180 cells [5]; 10-400 μM Taurolidine
  cell adherence (crystal violet assay): loss of cell adherence
LS-180 cells [5]; 100 μm, after 24 hours
  reduction in cell number (crystal violet assay): 40–50%
LS-180 cells [5]; [11]
  decrease in adherent tumor cells (crystal violet assay): 60%
  decrease in tumor cell viability (crystal violet assay): 85%
LS-180 cells [6]; 50 and 100 μm, 24 hours
  sub-G1 peak by propidium iodide flow cytometry: failed to demonstrate a sub-GI peak; also recorded: failed to demonstrate a sub-G1 peak
LS-180 cells [6]; 100, 200 and 400 μM, 24 hours
  sub-diploid DNA peak (DNA degradation in apoptotic cells): dose dependent increase
LS-180 cells [6]; treated vs untreated cells, 50 and 100 μm
  cell cycle progression / proliferation (flow cytometry, BrdU): no significant change in cell cycle progression; also recorded: no significant change in proliferation or cell cycle
[7]; 50, 100 and 400 μm, 12 or 24 hours, read-out: percent cytotoxicity (LDH release), all cases
  cytotoxicity: < 2%
[7]; 50 μm, 24 hours, read-out: percent cytotoxicity (LDH release)
  cytotoxicity at 24 h, 50 µM: -0.07%
[7]; 100 μm, 24 hours, read-out: percent cytotoxicity (LDH release)
  cytotoxicity at 24 h, 100 µM: 0.15%
[7]; 400 μm, 24 hours, read-out: percent cytotoxicity (LDH release)
  cytotoxicity at 24 h, 400 µM: 1.58%
LS-180 cells [8]
  cytolysis (culture medium LDH activity): no significant cytolysis

## z-Val-Ala-Asp(OMe)-CH2F [Z-VAD-fmk]
caspase-3; 50 μM Z-VAD-fmk before 100, 200, 400 μM Taurolidine, vs untreated LS-180 cells
  caspase-3 activity in Taurolidine-treated cells after caspase inhibition: no significant increase in caspase-3 activity
LS-180 cells [5]; 50-uM Z-VAD-fmk before Taurolidine
  loss of cell adherence of Taurolidine-treated cells after caspase inhibition (crystal violet): not affected

Source: patent US7122541B2, “Methods of inhibiting metastases” (Rhode Island Hospital, priority 2001, dated 2006)
